In patent US20250215029A1 (Recludix Pharma, Inc., priority 2022, published 2025) one finds IC50 data, which are given here for 16 molecules.

SMILES strings stand for the structures.

Assay [1] deals with T1, Recombinant STAT3 protein (STAT3 (G127-I722)) (Homo sapiens, UniProt P40763).
T1 construct: Recombinant STAT3 protein (STAT3 (G127-I722))
Description: STAT3 Fluorescence Polarization (FP) Assay. It counts as binding. As to conditions: STAT3 (G127-I722) 25 nM, probe 5-FAM-GpYLPQTV-NH2 2 nM, 45-minute incubation; read-out: STAT3 (FP assay IC50 class). Put shortly:
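Compounds in serial dilution receive a premix of STAT3 (G127-I722, 25 nM) and fluorescent phosphotyrosine peptide 5-FAM-GpYLPQTV-NH2 (2 nM) at pH 7.4. After 45 min at room temperature, FP is measured and IC50 derived by nonlinear regression.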
In general terms: Polarisation of emitted light reports the rotation of a fluorescent probe.

The target of assay [2] is T2, Recombinant STAT6 protein (STAT6 (W123-T658)) (Homo sapiens, UniProt P42226).
T2 construct: Recombinant STAT6 protein (STAT6 (W123-T658))
T2 sequence (P42226 123-658): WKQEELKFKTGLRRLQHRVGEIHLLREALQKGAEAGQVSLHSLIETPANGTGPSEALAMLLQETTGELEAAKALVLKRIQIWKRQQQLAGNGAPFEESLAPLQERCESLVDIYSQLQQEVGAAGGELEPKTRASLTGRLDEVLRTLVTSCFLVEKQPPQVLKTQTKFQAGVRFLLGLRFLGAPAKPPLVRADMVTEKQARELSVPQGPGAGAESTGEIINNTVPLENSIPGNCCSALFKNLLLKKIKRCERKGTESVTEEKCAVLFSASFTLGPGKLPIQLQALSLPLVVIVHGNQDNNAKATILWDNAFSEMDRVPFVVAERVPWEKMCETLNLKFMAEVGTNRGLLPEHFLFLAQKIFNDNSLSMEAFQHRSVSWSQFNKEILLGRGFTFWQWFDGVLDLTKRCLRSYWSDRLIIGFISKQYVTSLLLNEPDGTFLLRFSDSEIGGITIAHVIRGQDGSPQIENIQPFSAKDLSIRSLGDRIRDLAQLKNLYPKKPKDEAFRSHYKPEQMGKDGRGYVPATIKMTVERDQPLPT
Put plainly: STAT6 Fluorescence Polarization (FP) Assay. As to conditions: STAT6 (W123-T658) 250 nM, probe 5-FAM-Ap[…]-NH2 2 nM, 45-minute incubation; read-out: STAT6 (FP assay IC50 class). It counts as binding. Put shortly: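 STAT6 (W123-T658) at 250 nM was mixed with 2 nM 5-FAM-labeled phosphotyrosine peptide probe in HEPES pH 7.4 buffer with NaCl, EDTA, Tween 20 and DTT, then added to serially diluted compounds at 1% DMSO final. Polarization was read after 45 min at room temperature; IC50 came from nonlinear regression of mP versus log concentration.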

T1 sequence (P40763 127-722): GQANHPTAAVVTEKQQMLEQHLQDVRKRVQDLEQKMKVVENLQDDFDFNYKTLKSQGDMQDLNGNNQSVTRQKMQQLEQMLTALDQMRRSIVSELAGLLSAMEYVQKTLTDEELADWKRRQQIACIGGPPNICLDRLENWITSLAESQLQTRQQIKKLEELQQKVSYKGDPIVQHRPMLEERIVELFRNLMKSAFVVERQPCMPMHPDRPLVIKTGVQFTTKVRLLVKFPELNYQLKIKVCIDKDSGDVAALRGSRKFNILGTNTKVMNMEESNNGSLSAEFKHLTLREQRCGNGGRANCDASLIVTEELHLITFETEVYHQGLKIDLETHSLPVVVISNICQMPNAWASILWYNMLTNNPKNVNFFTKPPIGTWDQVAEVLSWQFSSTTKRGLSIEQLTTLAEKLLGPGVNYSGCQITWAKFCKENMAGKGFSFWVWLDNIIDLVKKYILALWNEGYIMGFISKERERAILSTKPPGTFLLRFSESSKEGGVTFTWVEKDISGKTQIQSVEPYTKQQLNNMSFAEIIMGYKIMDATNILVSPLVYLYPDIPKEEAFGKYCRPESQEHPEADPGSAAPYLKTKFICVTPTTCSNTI

For the molecule `CCOc1ccncc1C1CN(C(=O)[C@@H]2CC[C@@H]3CCC[C@H](NC(=O)c4cc5cc(C(F)P(=O)(O)O)ccc5s4)C(=O)N32)C1` (stereo partly drawn) [Compound 597, ((2-(((3S,6S,9aS)-3-(3-(4-ethoxypyridin-3-yl)azetidine-1-carbonyl)-5-oxooctahydro-1H-pyrrolo[1,2-a]azepin-6-yl)carbamoyl)benzo [b]thiophen-5-yl)fluoromethyl) phosphonic acid], the values for the IC50 in assay [1] and in assay [2] were less than 0.1 µM and 3 to 30 µM, respectively.
Take `O=C(N[C@H]1CCC[C@H]2CC[C@@H](C(=O)N3CC(c4cnccc4OC4COC4)C3)N2C1=O)c1cc2cc(C(F)P(=O)(O)O)ccc2s1` (stereo partly drawn) [Compound 598, (fluoro(2-(((3S,6S,9aS)-3-(3-(4-(oxetan-3-yloxy)pyridin-3-yl)azetidine-1-carbonyl)-5-oxooctahydro-1H-pyrrolo[1,2-a]azepin-6-yl)carbamoyl)benzo [b]thiophen-5-yl)methyl) phosphonic acid]: the IC50 (as a rule, the concentration at which inhibition is half-maximal) in assay [1] was less than 0.1 µM; in assay [2], 3 to 30 µM.
Turning to `O=C(N[C@H]1CCCC[C@H]2CC[C@@H](C(=O)N3C(=O)N(c4cccc5c4OC(F)(F)O5)C(=O)C34CC4)N2C1=O)c1cc2cc(C(F)P(=O)(O)O)ccc2s1` (stereo partly drawn) [Compound 601, ((2-(((3S,6S,10aS)-3-(6-(2,2-difluorobenzo[d][1, 3]dioxol-4-yl)-5,7-dioxo-4,6-diazaspiro[2.4]heptane-4-carbonyl)-5-oxodecahydropyrrolo [1,2-a]azocin-6-yl)carbamoyl)benzo [b]thiophen-5-yl)fluoromethyl) phosphonic acid], the 50% inhibitory concentration (IC50) is 1 to 10 µM in assay [1] and no more than 0.3 µM in assay [2].
As for `CC1C(c2cccnc2)CN1C(=O)[C@@H]1CC[C@@H]2CCC[C@H](NC(=O)c3cc4cc(C(F)P(=O)(O)O)ccc4s3)C(=O)N21` (stereo partly drawn) [Compound 602, (fluoro(2-(((3S,6S,9aS)-3-(2-methyl-3-(pyridin-3-yl)azetidine-1-carbonyl)-5-oxooctahydro-1H-pyrrolo[1,2-a]azepin-6-yl)carbamoyl)benzo [b]thiophen-5-yl)methyl) phosphonic acid], the IC50 was less than 0.1 µM in assay [1] and 3 to 30 µM in assay [2].
Take `C[C@@H]1CC[C@H](NC(=O)c2cc3cc(CP(=O)(O)O)ccc3s2)C(=O)N2[C@H](CC[C@H]2C(=O)N2CC(c3cnccc3F)C2)C1` [Compound 603, ((2-(((3S,6S,9R,10aR)-3-(3-(4-fluoropyridin-3-yl)azetidine-1-carbonyl)-9-methyl-5-oxodecahydropyrrolo [1,2-a]azocin-6-yl)carbamoyl)benzo [b]thiophen-5-yl)methyl) phosphonic acid]: the half-maximal inhibitory concentration (IC50) in assay [1] is less than 0.1 µM; in assay [2] it was 3 to 30 µM.
For the molecule `O=C(N[C@H]1CCC[C@H]2CC[C@@H](C(=O)N3CCC(c4ccncn4)CC3)N2C1=O)c1cc2cc(C(F)P(=O)(O)O)ccc2s1` (stereo partly drawn) [Compound 604, (fluoro(2-(((3S,6S,9aS)-5-oxo-3-(4-(pyrimidin-4-yl)piperidine-1-carbonyl)octahydro-1H-pyrrolo[1,2-a]azepin-6-yl)carbamoyl)benzo [b]thiophen-5-yl)methyl) phosphonic acid], the IC50 in assay [1] lay in the range of 0.1 to 1 µM; in assay [2], 3 to 30 µM.
For `O=C(N[C@H]1CCC[C@H]2CC[C@@H](C(=O)N3CC(c4cncnc4O)C3)N2C1=O)c1cc2cc(CP(=O)(O)O)ccc2s1` [Compound 605, ((2-(((3S,6S,9aS)-3-(3-(4-hydroxypyrimidin-5-yl)azetidine-1-carbonyl)-5-oxooctahydro-1H-pyrrolo[1,2-a]azepin-6-yl)carbamoyl)benzo [b]thiophen-5-yl)methyl) phosphonic acid] the same measures were less than 0.1 µM and 3 to 30 µM.
With `CNc1ccncc1C1CN(C(=O)[C@@H]2CC[C@@H]3CCC[C@H](NC(=O)c4cc5cc(CP(=O)(O)O)ccc5s4)C(=O)N32)C1` [Compound 606, ((2-(((3S,6S,9aS)-3-(3-(4-(methylamino)pyridin-3-yl)azetidine-1-carbonyl)-5-oxooctahydro-1H-pyrrolo[1,2-a]azepin-6-yl)carbamoyl)benzo [b]thiophen-5-yl)methyl) phosphonic acid], the IC50 was less than 0.1 µM in assay [1] and 3 to 30 µM in assay [2].
Regarding `Cn1ncc(C2CN(C(=O)[C@@H]3CC[C@@H]4CCC[C@H](NC(=O)c5cc6cc(C(F)P(=O)(O)O)ccc6s5)C(=O)N43)C2)c1O` (stereo partly drawn) [Compound 607, (fluoro(2-(((3S,6S,9aS)-3-(3-(5-hydroxy-1-methyl-1H-pyrazol-4-yl)azetidine-1-carbonyl)-5-oxooctahydro-1H-pyrrolo[1,2-a]azepin-6-yl)carbamoyl)benzo [b]thiophen-5-yl)methyl) phosphonic acid], the figures for the IC50 in assay [1] and in assay [2] were less than 0.1 µM and 0.3 to 3 µM, respectively.
The like results for `O=C(N[C@H]1CCC[C@H]2CC[C@@H](C(=O)N3CC(c4ccccc4O)C3)N2C1=O)c1cc2cc(C(F)P(=O)(O)O)ccc2s1` (stereo partly drawn) [Compound 608, (fluoro(2-(((3S,6S,9aS)-3-(3-(2-hydroxyphenyl)azetidine-1-carbonyl)-5-oxooctahydro-1H-pyrrolo[1,2-a]azepin-6-yl)carbamoyl)benzo [b]thiophen-5-yl)methyl) phosphonic acid] were, in that order, less than 0.1 µM and 0.3 to 3 µM.
The like results for `O=C(N[C@H]1CCC[C@H]2CC[C@@H](C(=O)N3CC(n4cnccc4=O)C3)N2C1=O)c1cc2cc(C(F)P(=O)(O)O)ccc2s1` (stereo partly drawn) [Compound 609, (fluoro(2-(((3S,6S,9aS)-5-oxo-3-(3-(6-oxopyrimidin-1(6H)-yl)azetidine-1-carbonyl)octahydro-1H-pyrrolo[1,2-a]azepin-6-yl)carbamoyl)benzo [b]thiophen-5-yl)methyl) phosphonic acid] were, in that order, 0.1 to 1 µM and 3 to 30 µM.
On to `O=C(N[C@H]1CCC[C@H]2CC[C@@H](C(=O)N3CC(c4ccncc4F)C3)N2C1=O)c1cc2cc(C(F)P(=O)(O)O)ccc2s1` (stereo partly drawn) [Compound 610, (fluoro(2-(((3S,6S,9aS)-3-(3-(3-fluoropyridin-4-yl)azetidine-1-carbonyl)-5-oxooctahydro-1H-pyrrolo[1,2-a]azepin-6-yl)carbamoyl)benzo [b]thiophen-5-yl)methyl) phosphonic acid], for which the IC50 is 0.1 to 1 µM in assay [1] and 3 to 30 µM in assay [2].
As for `O=C(N[C@H]1CCC[C@H]2CC[C@@H](C(=O)N3CC(c4ccncc4)C3)N2C1=O)c1cc2cc(C(F)P(=O)(O)O)ccc2s1` (stereo partly drawn) [Compound 611, (fluoro(2-(((3S,6S,9aS)-5-oxo-3-(3-(pyridin-4-yl)azetidine-1-carbonyl)octahydro-1H-pyrrolo[1,2-a]azepin-6-yl)carbamoyl)benzo [b]thiophen-5-yl)methyl) phosphonic acid], the IC50 in assay [1] fell in the range of 0.1 to 1 µM; in assay [2], 3 to 30 µM.
`CC(C)Oc1ccncc1C1CN(C(=O)[C@@H]2CC[C@@H]3CCC[C@H](NC(=O)c4cc5cc(C(F)P(=O)(O)O)ccc5s4)C(=O)N32)C1` (stereo partly drawn) [Compound 612, (fluoro(2-(((3S,6S,9aS)-3-(3-(4-isopropoxypyridin-3-yl)azetidine-1-carbonyl)-5-oxooctahydro-1H-pyrrolo[1,2-a]azepin-6-yl)carbamoyl)benzo [b]thiophen-5-yl)methyl) phosphonic acid]: the IC50 is less than 0.1 µM in assay [1] and 3 to 30 µM in assay [2].
`O=C(N[C@H]1CCC[C@H]2CC[C@@H](C(=O)N3CC(n4cccn4)C3)N2C1=O)c1cc2cc(C(F)P(=O)(O)O)ccc2s1` (stereo partly drawn) [Compound 613, ((2-(((3S,6S,9aS)-3-(3-(1H-pyrazol-1-yl)azetidine-1-carbonyl)-5-oxooctahydro-1H-pyrrolo[1,2-a]azepin-6-yl)carbamoyl)benzo [b]thiophen-5-yl)fluoromethyl) phosphonic acid]: the IC50 was in the range of 0.1 to 1 µM in assay [1] and 3 to 30 µM in assay [2].
Regarding `O=C(N[C@H]1CCC[C@H]2CC[C@@H](C(=O)N3CC(n4cc(F)cn4)C3)N2C1=O)c1cc2cc(C(F)P(=O)(O)O)ccc2s1` (stereo partly drawn) [Compound 614, (fluoro(2-(((3S,6S,9aS)-3-(3-(4-fluoro-1H-pyrazol-1-yl)azetidine-1-carbonyl)-5-oxooctahydro-1H-pyrrolo[1,2-a]azepin-6-yl)carbamoyl)benzo [b]thiophen-5-yl)methyl) phosphonic acid], the IC50 lay in the range of 0.1 to 1 µM in assay [1] and 3 to 30 µM in assay [2].
